Measurements as given in patent publication US20100190817A1, “LARGE SUBSTITUENT, NON-PHENOLIC AMINE OPIOIDS” (RENSSELAER POLYTECHNIC INSTITUTE, priority 2008, published 2010).

What was measured:
[1] = system: mice; details: cited from earlier work; for duration of action (antinociception): 1 mg/kg ip in mice
[2] = system: κ opioid receptors; details: cited from earlier work
[3] = system: guinea pig μ receptors; details: cited from earlier work
[4] = target: human κ opioid receptor (Homo sapiens, UniProt P41145); experiment: Opioid receptor binding assay, [3H]U69,593 (κ)
[5] = target: human δ opioid receptor (Homo sapiens, UniProt P41143); experiment: Opioid receptor binding assay, [3H]naltrindole (δ)
[6] = target: human μ opioid receptor (Homo sapiens, UniProt P35372); experiment: Opioid receptor binding assay, [3H]DAMGO (μ)
human μ opioid receptor, sequence (P35372 whole entry): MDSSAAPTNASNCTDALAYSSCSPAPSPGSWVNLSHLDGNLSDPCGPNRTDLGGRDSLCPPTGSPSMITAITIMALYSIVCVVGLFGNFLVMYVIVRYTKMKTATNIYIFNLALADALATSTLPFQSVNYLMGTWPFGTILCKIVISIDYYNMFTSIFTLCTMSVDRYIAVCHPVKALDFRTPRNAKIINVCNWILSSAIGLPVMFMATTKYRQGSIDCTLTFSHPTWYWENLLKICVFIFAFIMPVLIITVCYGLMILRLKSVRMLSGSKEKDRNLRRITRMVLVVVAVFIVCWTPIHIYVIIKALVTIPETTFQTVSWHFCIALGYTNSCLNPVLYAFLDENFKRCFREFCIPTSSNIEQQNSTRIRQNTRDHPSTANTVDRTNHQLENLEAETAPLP

human δ opioid receptor, sequence (P41143 whole entry): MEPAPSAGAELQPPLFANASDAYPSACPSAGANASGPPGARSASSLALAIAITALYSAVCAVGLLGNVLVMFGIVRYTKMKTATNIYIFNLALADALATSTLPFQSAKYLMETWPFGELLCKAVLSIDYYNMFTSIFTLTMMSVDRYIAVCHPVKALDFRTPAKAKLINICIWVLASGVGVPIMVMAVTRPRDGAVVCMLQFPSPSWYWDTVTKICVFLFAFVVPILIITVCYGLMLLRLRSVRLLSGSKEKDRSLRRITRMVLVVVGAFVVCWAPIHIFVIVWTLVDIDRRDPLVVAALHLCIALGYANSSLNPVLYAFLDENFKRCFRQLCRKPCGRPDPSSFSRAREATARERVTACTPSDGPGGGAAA
human κ opioid receptor, sequence (P41145 whole entry): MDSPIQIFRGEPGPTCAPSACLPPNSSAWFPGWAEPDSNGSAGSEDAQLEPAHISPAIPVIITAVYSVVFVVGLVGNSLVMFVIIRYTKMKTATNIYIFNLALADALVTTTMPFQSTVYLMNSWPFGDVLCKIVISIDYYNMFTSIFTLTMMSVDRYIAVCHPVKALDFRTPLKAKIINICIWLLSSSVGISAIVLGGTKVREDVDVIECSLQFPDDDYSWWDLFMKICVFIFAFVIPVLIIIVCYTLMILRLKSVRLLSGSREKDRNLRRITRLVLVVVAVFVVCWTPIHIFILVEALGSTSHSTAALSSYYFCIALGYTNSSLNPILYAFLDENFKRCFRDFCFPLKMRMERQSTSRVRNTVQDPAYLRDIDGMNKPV

| SMILES | duration of action (antinociception) [1] [h] | antinociception activity ([1]; studies in vivo) | affinity for κ opioid receptors [2] | affinity for μ opioid receptors [3] | Ki [4] [nM] | Ki [5] [nM] | Ki [6] [nM] |
| --- | --- | --- | --- | --- | --- | --- | --- |
| C[C@H]1C2Cc3ccc(C(N)=O)cc3[C@@]1(C)CCN2CC1CC1 [Example 8-CAC, 8-carboxamidocyclazocine] | 15 | high antinociception activity | high affinity | high affinity | – | – | – |
| CC1C2Cc3ccc(C(=O)NCCc4ccc(-c5cccc(N(C)C)c5)cc4)cc3C1(C)CCN2CC1CC1 (centres unmarked) [SJJ-B-074c] | – | – | – | – | 0.26 ± 0.022 | 2.5 ± 0.17 | 0.18 ± 0.055 |
| CC1C2Cc3ccc(C(=O)NCCc4ccc(-c5ccc(N)cc5)cc4)cc3C1(C)CCN2CC1CC1 (centres unmarked) [SJJ-B-112g] | – | – | – | – | 0.39 ± 0.0085 | 1.5 ± 0.078 | 0.0014 ± 0.0001 |
| CC1C2Cc3ccc(C(=O)NCCc4ccc(-c5ccc(CN(C)C)cc5)cc4)cc3C1(C)CCN2CC1CC1 (centres unmarked) [SJJ-C-013b] | – | – | – | – | 1.9 ± 0.014 | 3.7 ± 0.15 | 0.094 ± 0.0054 |
| CC1C2Cc3ccc(C(=O)NCCc4ccc(-c5ccc(NC(=O)OC(C)(C)C)cc5)cc4)cc3C1(C)CCN2CC1CC1 (centres unmarked) [SJJ-C-027b] | – | – | – | – | 3.4 ± 0.32 | 3.1 ± 0.34 | 0.32 ± 0.015 |
| C[C@H]1[C@H]2Cc3ccc(O)cc3[C@]1(C)CCN2CC1CC1 [cyclazocine] | 2 | – | – | – | – | – | – |
